{
  "source": "patent US9393288B2",
  "about": "“Methods of treating diseases associated with PPARγ” (The University of Vermont and State Agricultural College, priority 2012, dated 2016)",
  "key": {"[1]": {"conditions": "rat, in vivo", "experimental": "(§1) A separate group of SHR-F was used to determine if relaxin crosses the BBB by treating with relaxin (4 μg/hr) for 14 days and measuring relaxin concentration in cerebrospinal fluid (CSF) and serum (SHR-F-Rln-CSF, n=4). For the osmotic pump implant, animals were anesthetized with 3% isoflurane and minipumps implanted subcutaneously in the back of the neck. All animals received post-surgical analgesia (buprenorphine, 50 μg/kg, s.c.). Relaxin infusion was continuous for 14 days until animals were euthanized for isolated vessel experiments and tissue collection.\nAnimals were anesthetized with isoflurane (3% in oxygen), decapitated, and trunk blood was collected for measurement of circulating relaxin. Serum was then collected and stored at −80° C. for determination of relaxin levels by enzyme-linked immunosorbent assay (ELISA) following manufacturer's instructions (Human Relaxin-2 Quantikine ELISA Kit, R&D Systems, Minneapolis, Minn., USA). Serum samples were diluted by 1:500 in the assay.\nTo determine the presence of relaxin in CSF, animals were anesthetized and CSF collected through a needle inserted into the cisterna magna (Liu, L., and Duff, K. (2008) A technique for serial collection of cerebrospinal fluid from the cisterna magna in mouse. Journal of visualized experiments: JoVE). […] Relaxin levels were determined in serum and CSF by ELISA as described above, except CSF was not diluted."}, "[2]": {"system": "middle cerebral arteries (MCA)", "assay": "Pressurized arteriograph: structure of MCA from female SHR", "format": "in vivo, rat", "conditions": "SHR-F-Rln vs untreated SHR-F", "experimental": "as §1\nAfter collecting trunk blood, the brain was quickly removed and placed in cold physiological salt solution (PSS). […] Temperature and pH were continuously measured and maintained at 37.0±0.5° C. and 7.40±0.05, respectively. […]\nPA and MCA were equilibrated for 1 hour, after which myogenic activity was determined by stepwise increases in pressure from 40 to 100 mmHg for PA or 50 to 175 mmHg for MCA. ID and WT were measured at each pressure once stable. […] To obtain structural measurements, ID and WT were recorded at pressures between 5 to 200 mmHg for PA or 5 to 175 mmHg for MCA in zero-calcium PSS containing ethylene glycol tetra-acetic acid (EGTA) and outer diameter (OD) and distensibility calculated.\nPercent tone was calculated as percent decrease in ID from the passive diameter at each intravascular pressure: [1−(IDactive/IDpassive)]×100. […]"}, "[3]": {"system": "brain capillaries", "assay": "Brain capillary density (von Willebrand factor immunohistochemistry, capillary counting) in SHR", "format": "in vivo, rat", "conditions": "relaxin-treated SHR vs WKY and untreated SHR"}, "[4]": {"system": "PPARγ and PPARγ target genes", "assay": "Expression of PPARγ and PPARγ target genes (qPCR) in adipose tissue and brain cortex, SHR", "format": "in vivo, rat", "experimental": "After dissecting PA and MCA for isolated vessel experiments, the remaining MCA, PA, and brain cortex from the MCA territory of 4-6 rats were collected and stored at −80° C. in RNase inhibitor (1 unit/μl, RiboLock, Fermentas, Glen Burnie, Md., USA) to determine mRNA expression levels of target genes using real-time qPCR methods. Target genes were assessed using Assays on Demand from Applied Biosystems. […] All primers were designed across an exon-exon junction to avoid detecting genomic DNA, so no DNase treatment was required. Housekeeping gene β-actin was used in all qPCR experiments as a control. Standard techniques for real-time qPCR were performed by the Vermont Cancer Center DNA analysis facility at the University of Vermont, as described previously (Cipolla, M. J., Smith, J., Kohlmeyer, M. M., and Godfrey, J. A. (2009) SKCa and IKCa Channels, myogenic tone, and vasodilator responses in middle cerebral arteries and parenchymal arterioles: effect of ischemia and reperfusion. Stroke 40, 1451-1457).\nTo investigate the mechanisms by which relaxin causes selectively remodeling of PA, mRNA expression of VEGF, MMP-2, and MMP-9 were compared between MCA, PA, brain cortex. To determine if relaxin activates peroxisome proliferator-activated receptor-gamma (PPARγ), expression levels of PPARγ target genes fatty acid binding protein-4 (FABP4) and plasminogen activator inhibitor-1 (PAI-1) were determined in mesenteric adipose tissue. Expression levels of PPARγ and its target genes PAI-1 and liver X receptors-α (LXR-α) were also determined in brain cortex (Chan, S. L., and Cipolla, M. J. (2012) Determination of PPARgamma activity in adipose tissue and spleen. J Immunoassay Immunochem 33, 314-324)."}, "[5]": {"conditions": "SHR-F-Rln vs SHR-F, listed as Relaxin"}},
  "note": "“Also recorded” adds a separate entry of the source.",
  "data": [
    {"substance": "relaxin", "values": [
      {"measurement": "Relaxin in CSF as share of that in the circulation", "setting": "[1]", "result": "about 0.3%"},
      {"measurement": "Relaxin in cerebrospinal fluid", "setting": "[1]", "result": "110 ± 30", "unit": "pg/mL"},
      {"measurement": "Structure of MCA (passive ID, WT, distensibility)", "setting": "[2]", "result": "no effect"},
      {"measurement": "Number of capillaries in the brain (capillary density)", "setting": "[3]", "result": "significant increase"},
      {"measurement": "FABP4 expression in adipose tissue", "setting": "[4]; [5]", "result": "decreased both FABP4 and PAI-1 expressions in adipose tissue, although this was not statistically significant; also recorded: decreased expression of FABP4 and PAI-1 in adipose tissue, although this was not statistically significant"},
      {"measurement": "PAI-1 expression in adipose tissue", "setting": "[4]; [5]", "result": "decreased both FABP4 and PAI-1 expressions in adipose tissue, although this was not statistically significant; also recorded: decreased expression of FABP4 and PAI-1 in adipose tissue, although this was not statistically significant"},
      {"measurement": "Expression of PPARγ and its target genes (PAI-1, LXR-α) in brain cortex", "setting": "[4]; WKY-F, SHR-F, SHR-F-Rln", "result": "did not affect"}
    ]}
  ]
}
